Measurements as given in patent publication US6841533B1, “Conformationally constrained backbone cyclized interleukin-6 antagonists” (Peptor Limited, priority 1995, dated 2005).
Numbered stars: 1 amine (or outer) side, 2 acyl side, 3 side chain; on linkers, the order of the positions; unused ones are H or OH. Bridge positions count the residues as written; N and C are the ends. Square brackets hold non-standard residues; d marks the D form. Peptide text beside a SMILES is read from it. ξ: configuration not given here. Ala(Nα-(CH2)3CO) = C[C@@H](C(=O)[*:2])N(CCCC(=O)[*:3])[*:1]; Ala(Nα-(CH2)3NH) = C[C@@H](C(=O)[*:2])N(CCCN[*:3])[*:1]; ξY = NC(Cc1ccc(O)cc1)C(=O)O

Experiments:
[1] = tested on: IL-6 mediated acute-phase response; test: IL-6 mediated acute-phase response (turpentine model); assay type: in vivo, mice; details: for Mean weight loss % / Mean weight loss grams: mice, turpentine, 1 or 10 mg/kg of peptide
Text: The objective was to establish a simple first-line in-vivo model, for testing the activity of IL-6 inhibitors. The turpentine model was chosen based on the principal role that IL-6 plays in this inflammatory response.
Systemic and localized inflammation elicit a general reaction in the organism, known as the acute phase response, which includes fever, loss of body weight, hypoglycemia, and changes in the serum levels of several plasma proteins produced by the liver. IL-6 is an important mediator of the acute-phase reaction (see Heinrich et.al., Biochemistry J. 1 265:621, 1990 for a comprehensive review), together with IL-1 and TNF-α. It has been shown previously that sterile tissue damage caused by injection of turpentine induces an acute-phase reaction, and that IL-6 is an essential mediator of this response (Rokita et.al., Cytokine 5:454, 1993).
IL-6 knock-out (-/-) and matched wild-type (C57/Black; CB) mice were used. Sterile tissue damage was induced by subcutaneous injection of turpentine, 0.1 ml, into both hind limbs. IL-6 was determined in the serum by ELISA (QuantikineM, R&D). For liver acute-phase proteins, Fibrinogen was determined in citrated plasma, by the calcium method.
PTR 5045 (SEQ ID NO:75) was tested in this model in compare to the non-relevant control peptide PTR 4041 (SEQ ID NO:33) (Lys-GlyC2-Leu-Ile-Gln-Leu-Phe-GlyN3-Lys-Lys-NH2).

B16.F10.9 melanoma cells = details: for concentration that fully blocks IL-6 activity: 200 ng/ml IL-6 and 125 ng/ml sIL-6R, three days, FIG. 2; for B16F10.9 active at: theoretical crude concentration, MPS peptides
Text: The F10.9 sub-line of B16 (murine melanoma) expresses gp130 but not IL-6R. Addition of human IL-6 and human IL-6R, or a chimera of IL-6/IL-6R results in differentiation which is associated with growth arrest of the cells. Inhibition of IL-6 results in continued growth. Since the end point of this assay is cell growth rather than cell death, this assay system was used primarily in order to differentiate between suspected toxic effects observed on B9 or T1165 cells, and true inhibition of IL-6 activity.
Evaluation of the results in this assay is possible using two methods. One method uses vital dyes for monitoring cell growth. The second method comprises visual observation of the cell morphology and establishing a cut off point based on the following observations:
Cells which are not treated with IL-6 create a monolayer that covers almost all the surface area. Treatment with IL-6 causes growth arrest and a morphological change: the cells become very narrow and elongated as compared to the more spread out shape of the non-treated cells.
Peptides were added to B16.F10.9 melanoma cells in the presence of 200 ng/ml IL-6 and 125 ng/ml sIL-6R. Incubation for three days.

A375 cells = test: Bioassay using A375 cells, cytokines other than IL-6; assay type: cell-based, human; details: maximal inhibitory activity of IL-6 on A375 cells = 100%
Text: The A375 are human melanoma cells. IL-6 induces differentiation of A375 cells which is associated with growth arrest similar to the phenomenon observed with the B16F10.9 murine melanoma cells. Thus, inhibition of IL-6 results in continued growth of the cells which is easily quantifiable. In such case toxicity of peptides would register as a false negative rather than false positive. This conditions is preferable during screening process. Second, since these are human cells, the molecules involved in the bio-response, i.e. IL-6, IL-6R and gp130 are all of human origin thus ensuring authenticity of the tested peptide bioactivity. Another advantage of the A375 cells is their ability to be induced by other cytokines that share the gp130 signal transducer, i.e. leukemia inhibitory factor (LIF) and oncostatine M (OSM). […] The availability of this assay system, allows us to test, the specificity of our IL-6 inhibitory peptides vs. other cytokines of the family, in an array of assays all using a single cell line. Assay performance is described in Savino et al. (ibid).

[2] = molecular target: leukocyte inhibitory factor receptor (LIF-R); test: cell-based or functional assay
[3] = Metabolic stability in vitro against renal homogenate; assay type: in vitro ADME
Procedure: The special feature of the novel backbone cyclic peptide analogs is their metabolic stability as tested in vitro against degradation of the most aggressive enzyme mixture in the body (e.g., renal homogenate). PTR 5045 is stable under these conditions for up to 24 hours.

[4] = tested on: TF1 cells maintained with IL-6; test: Bioassay using TF1 cells maintained with IL-6; assay type: cell-based, human; parameters: TF1: unit not given here; details: MPS crude peptides, Table 6
Text: TF1 cells (human erythroleukemia) cells require IL-6 for growth and thus inhibition of IL-6 bioactivity results in cell death, similar to T1165 cells. The origin of all relevant molecules is human.
The problem associated with toxicity (false positive results), could be overcome in the TF1 based assay since these cells can be induced by additional cytokines which are unrelated to IL-6 (not using the gp130 signal transducer). It, is possible to induce the cells to grow with IL-6 and with additional cytokine e.g. GM-CSF. Specific inhibition of IL-6 bioactivity is therefore expected to register only in cells induced by IL-6 and not with GM-CSF. […] Assay procedure is based on the procedure described in Fourcin et al. (ibid). The amount of viable cells at the end of the assay is determined by staining the cells with WST reagent as well as by measuring thymidine corporation (^3H-T).
The libraries were screened for binding of soluble IL-6. The information obtained was used for synthesis of backbone cyclic peptides in MPS format. Analyses for biological activity were performed on the TF1 human cell line.
Since the endpoint of the bioassay used is cell death, there is a need to check the specificity of the killing action, and to examine whether the cell death is due to inhibition of the IL-6 signaling pathway. The peptide analogs were therefore analyzed for their ability to induce non-specific cell death when the same cells were maintained with GM-CSF (instead of IL-6) as growth factor.

Lys-GlyC2-Leu-Ile-Gln-Leu-Phe-GlyN3-Lys-Lys-NH2 (KGLIQLFGKK; not fully specified; backbone cyclization, C-amide; listed as Homo sapiens) [PTR 4041, reference compound]
Mean weight loss % [1]: −7.3% | Mean weight loss grams [1]: −2.51 grams | concentration that fully blocks IL-6 activity (B16.F10.9 melanoma cells): not active

LIF: leukemia inhibitory factor, cytokine that shares the gp130 signal transducer
% Inhibition (relative to IL-6) (A375 cells; cytokine 1 ng/ml): 1% | % Inhibition (relative to IL-6) (A375 cells; cytokine 10 ng/ml): 2%

leukemia inhibitory factor (LIF) (ligand)
% Inhibition (relative to IL-6) of A375 cells, LIF + LIFR at 10 ng/ml [2]: 45%

CC(C)C[C@@H]1NC(=O)[C@H](C)N(C(=O)[C@H](Cc2ccccc2)NC(=O)[C@@H](CCCNC(=N)N)NC(=O)[C@H](CCCCN)NC(=O)[C@H](CCCNC(=N)N)NC(=O)[C@@H](N)Cc2c[nH]c3ccccc23)CCCC(=O)NCCCN([C@@H](C)C(N)=O)C(=O)[C@@H](Cc2ccc(O)cc2)NC(=O)[C@H](CCCNC(=N)N)NC1=O [PTR 5045, Trp-Arg-Lys-(D)Arg-Phe-AlaC3-Leu-Arg-(D)Tyr-AlaN3-NH2] (H-WRK[dR]F[Ala(Nα-(CH2)3CO)]LR[dY][Ala(Nα-(CH2)3NH)]-NH2; lactam 6-10)
Mean weight loss % [1]: −3.93% | Mean weight loss grams [1]: −1.35 grams | reduction of the effect mediated by IL-6 on body weight during acute inflammation ([1]; versus control peptide PTR 4041): reduces by about half | time stable against degradation by renal homogenate [3]: up to 24 hours | concentration that fully blocks IL-6 activity (B16.F10.9 melanoma cells): about 250 nM

CC(C)C[C@@H]1NC(=O)[C@H](C)N(C(=O)[C@@H](Cc2ccccc2)NC(=O)[C@@H](CCCNC(=N)N)NC(=O)[C@H](CCCCN)NC(=O)[C@H](CCCNC(=N)N)NC(=O)[C@@H](N)Cc2ccc(O)cc2)CCCC(=O)NCCCN([C@@H](C)C(N)=O)C(=O)C(Cc2ccc(O)cc2)NC(=O)[C@@H](CCCNC(=N)N)NC1=O (stereo partly drawn) [Tyr-Arg-Lys-(D)Arg-(D)Phe-AlaC3-Leu-(D)Arg-BTyr-AlaN3] (H-YRK[dR][dF][Ala(Nα-(CH2)3CO)]L[dR][ξY][Ala(Nα-(CH2)3NH)]-NH2; lactam 6-10)
TF1 [4]: 19 | B16F10.9 active at (B16.F10.9 melanoma cells): 47 µM

(D)Lys-Arg-Lys-Arg-Phe-AlaC3-(D)Leu-(D)Arg-Tyr-AlaN3
TF1 [4]: 27 | B16F10.9 active at (B16.F10.9 melanoma cells): not active

Lys-Arg-Leu-(D)Arg-(D)Phe-AlaC3-Lys-Arg-BTyr-AlaN3
TF1 [4]: 22 | B16F10.9 active at (B16.F10.9 melanoma cells): not active

(D)Lys-Arg-Lys-Arg-Phe-AlaC3-Leu-(D)Arg-(D)Tyr-AlaN3
TF1 [4]: 19 | B16F10.9 active at (B16.F10.9 melanoma cells): not active

CC(C)C[C@@H]1NC(=O)[C@H](C)N(C(=O)[C@H](Cc2ccccc2)NC(=O)[C@@H](CCCNC(=N)N)NC(=O)[C@H](CCCCN)NC(=O)[C@H](CCCNC(=N)N)NC(=O)[C@@H](N)CCCCN)CCCC(=O)NCCCN([C@@H](C)C(N)=O)C(=O)C(Cc2ccc(O)cc2)NC(=O)[C@H](CCCNC(=N)N)NC1=O (stereo partly drawn) [Lys-Arg-Lys-(D)Arg-Phe-AlaC3-Leu-Arg-BTyr-AlaN3] (H-KRK[dR]F[Ala(Nα-(CH2)3CO)]LR[ξY][Ala(Nα-(CH2)3NH)]-NH2; lactam 6-10)
TF1 [4]: 85 | B16F10.9 active at (B16.F10.9 melanoma cells): <12 µM

B1: OSM: oncostatine M, cytokine that shares the gp130 signal transducer (protein, UniProt P13725 26-221, looked up)
Oncostatin-M: AAIGSCSKEYRVLLGQLQKQTDLMQDTSRLLDPYIRIQGLDVPKLREHCRERPGAFPSEETLRGLGRRGFLQTLNATLGCVLHRLADLEQRLPKAQDLERSGLNIEDLEKLQMARPNILGLRNNIYCMAQLLDNSDTAEPTKAGRGASQPPTPTPASDAFQRKLEGCRFLHGYHRFMHSVGRVFSKWGESPNRSRR
% Inhibition (relative to IL-6) (A375 cells; cytokine 1 ng/ml): 94% | % Inhibition (relative to IL-6) (A375 cells; cytokine 10 ng/ml): 141%
